These results are taken from US7320785B2, “Compositions and methods for modulation of DARPP-32 phosphorylation” (The Rockefeller University, priority 2001, dated 2008).

Marks after values point to notes of the source that are not given here.

Series [1] deals with DARPP-32. As to the kind of experiment: Total DARPP-32 protein levels after chronic treatment with fluoxetine. The note with it: chronic fluoxetine 10 mg/kg i.p., compared with chronic saline. Type of series: in vivo, mouse. Here is the method: (§1) In all experiments, hippocampi, prefrontal cortices, and striata were rapidly dissected out and stored at −80° C. until assayed.
The test system of another series is DARPP-32 mRNA. Nature of the series: DARPP-32 mRNA levels by in situ hybridization after chronic fluoxetine. Type of series: in vivo, mouse. The note with it: fluoxetine 10 mg/kg i.p. once daily for 19 days. Here is the method: (§2) Brains were rapidly dissected out and frozen at −80° C. Cryostat sections (12-μm) were prepared and hybridized with [α-^35S]UTP-labeled riboprobes prepared by in vitro transcription from cDNA clones corresponding to full-length clones of DARPP-32 or inhibitor-1 as described (21). After hybridization, the sections were exposed to Biomax MR film (Kodak) for 2 14 days and analyzed with a Microcomputer Imaging Device system (M4, Imaging Research, St. Catherine's, ON, Canada).

The next series concerns inhibitor-1. Nature of the series: Total inhibitor-1 protein levels after chronic treatment with fluoxetine. The following applies: chronic fluoxetine 10 mg/kg i.p. Type of series: in vivo, mouse. Here is the method: as §1
In another series the test system is inhibitor-1 mRNA. As to the kind of experiment: Inhibitor-1 mRNA levels by in situ hybridization after chronic fluoxetine. Type of series: in vivo, mouse. The following applies: hippocampus, prefrontal cortex, striatum; fluoxetine 10 mg/kg i.p. once daily for 19 days. Here is the method:
as §2

Series [2] has as its system DARPP-32. As to the kind of experiment: DARPP-32 phosphorylation in vivo in mice after i.p. injection, immunoblotting. The arrangement: species or system mouse. On the technique in general: A western blot detects proteins with antibodies after separation by electrophoresis.
Series [3] relates to DARPP-32. Nature of the series: DARPP-32 phosphorylation in mouse brain slices, immunoblotting with phosphorylation state-specific antibodies. The note with it: slices from hippocampus, prefrontal cortex, striatum; fluoxetine 10 M printed.
Series [4] deals with WT and DARPP-32 KO mice. As to the kind of experiment: Locomotor activity measurements in activity monitors. Type of series: in vivo, mouse. The note with it: fluoxetine at the doses examined (5 or 10 mg/kg). Here is the method: Locomotor activity of WT and DARPP-32 KO mice was measured in activity monitors (43×44×45 cm) equipped with both horizontal and vertical sensors (Opto-Varimex, Columbus Instruments, Columbus, Ohio). Mice were acclimated to the boxes for 1 h, […] before the day of the experiment. The day of the experiment, mice were placed in the boxes for 20 min (habituation period) before drug administration. […] Locomotor activity parameters (distance traveled and stereotypic movements) were quantified by using the AutoTrack System (Columbus Instruments).

In series [5] the test system is WT and DARPP-32 KO mice. As to the kind of experiment: Tail-suspension test for antidepressant efficacy. Type of series: in vivo, mouse. The following applies: fluoxetine 5 or 10 mg/kg i.p. 30 min before the trial.
Series [6] relates to phospho-Ser137-DARPP-32. As to the kind of experiment: Dephosphorylation of phospho-Ser137-DARPP-32 by recombinant PP2C isoforms. Type of series: biochemical, rat. The following applies: [^32P]phospho-Ser137 DARPP-32 as substrate; in the presence of 10 mM Mn^2+. Here is the method:
The activity of PP2C isoforms using ^32P-DARPP (phosphorylated at Ser137) was assayed at 37° C. in a reaction mixture containing 25 mM Tris-HCl, pH 7.5, 10 mM MnCl2, 1% BSA, and […] substrate, in a total volume of […]. Reactions were stopped by addition of […] of 50% trichloroacetic acid. Samples were then incubated on ice for 30 min and centrifuged at 10,000 g for 10 min at 4° C. Radioactivity recovered in the supernatant was measured by Cerenkov counting in a scintillation counter (Beckman).
(§3) Kinetic parameters (Km and Vmax) were determined from Lineweaver-Burk plots.
Legend Table 8. Enzymatic activities of PP2C isoforms assayed using [^32P]phospho-Ser137 DARPP-32 as substrate. Phosphatase activity was measured by the release of ^32P, and Km and Vmax values were calculated from Lineweaver-Burk plots of the data.

Series [7] in a line: pNPP hydrolysis by recombinant PP2C isoforms (phosphatase assay). Type of series: biochemical, rat. The note with it: for Vmax / kcat / Km: pNPP as substrate; for Km: 37° C. Here is the method: The activity of PP2C isoforms using pNPP as substrate was assayed as previously described (Brumel et al., 1997). […] The reaction was stopped by addition of 1 ml of 0.1 M NaOH, and the initial rate of p-nitrophenol release was determined spectrophotometrically at 405 nm (using a molar extinction coefficient of 18 000 M−1 cm−1).
as §3
Legend Table 7. Enzymatic activities of PP2C isoforms assayed using pNPP as substrate. Phosphatase activity was measured using pNPP as substrate by the change in absorbance at 405 nm. Km and Vmax values were calculated from Lineweaver-Burk plots of the data.

In series [8] the test system is phospho-Ser137-DARPP-32. As to the kind of experiment: Dephosphorylation of phospho-Ser137-DARPP-32 by recombinant PP2C isoforms. Type of series: biochemical, rat. The following applies: phospho-Ser137-DARPP-32 as substrate; Mn^2+ or Mg^2+.
[9] abbreviates: Hippocampus, 5 mg/kg i.p., 15 min.
Where [10] appears, read: Hippocampus, 10 mg/kg i.p., 15 min.
[11] abbreviates: Hippocampus, 20 mg/kg i.p., 15 min.
[12] abbreviates: Striatum, 10 mg/kg i.p., 15 min.
The mark [13] stands for this setting: Striatum, 20 mg/kg i.p., 15 min.

Turning to `CNCCC(Oc1ccc(C(F)(F)F)cc1)c1ccccc1` (stereo not drawn) [Fluoxetine], the “total DARPP-32 protein” value was 121% in the series on DARPP-32 [1] (hippocampus), 123% in the series on DARPP-32 [1] (prefrontal cortex) and 102% with DARPP-32 [1] (striatum). Moreover, the “DARPP-32 mRNA expression” value is recorded as “increased” in the series with DARPP-32 mRNA (hippocampus and frontal cortex); “not in striatum” in the series with DARPP-32 mRNA (striatum). Moreover, the “total inhibitor-1 protein” value in the series on inhibitor-1 (hippocampus) was 98%; in the series with inhibitor-1 (prefrontal cortex), 102%; with inhibitor-1 (striatum) it was 97%. The “inhibitor-1 mRNA expression” value with inhibitor-1 mRNA is on record as “no effects”. In addition, the “Percent Phospho-Thr34” value with DARPP-32 [2] (Cortex, 5 mg/kg i.p., 15 min) is listed as 144(7.4)* Percent; in the series with DARPP-32 [2] (Cortex, 10 mg/kg i.p., 15 min), 140(4.7)* Percent; with DARPP-32 [2] (setting [9]), 150(3.8)* Percent; in the series with DARPP-32 [2] (setting [10]) it was 142(6.2)* Percent; in the series with DARPP-32 [2] (setting [11]) it was 141(11.6)* Percent; in the series on DARPP-32 [2] (Striatum, 5 mg/kg i.p., 15 min), 123(5.0)* Percent. Moreover, the “Percent Phospho-Thr34” value is reported as 155.2(12.9)* Percent with DARPP-32 [2] (setting [12]) and 141(7.6)* Percent in the series on DARPP-32 [2] (setting [13]). Besides, the “Percent Phospho-Thr75” value is on record as 86(7.0)* Percent in the series on DARPP-32 [2] (Cortex, 5 mg/kg i.p., 15 min); 85(4.2)* Percent in the series on DARPP-32 [2] (Cortex, 10 mg/kg i.p., 15 min); 82(7.3)* Percent in the series on DARPP-32 [2] (Cortex, 20 mg/kg i.p., 15 min); 84(6.4)* Percent in the series on DARPP-32 [2] (setting [9]); 87(3.0)* Percent in the series with DARPP-32 [2] (setting [10]); 88(3.0)* Percent with DARPP-32 [2] (setting [11]). The “Percent Phospho-Thr75” value in the series with DARPP-32 [2] (Striatum, 5 mg/kg i.p., 15 min) is given as 95(3.1) Percent; with DARPP-32 [2] (setting [12]), 84.6(8.9)* Percent; with DARPP-32 [2] (setting [13]), 92(2.1)* Percent. Moreover, in the series on DARPP-32 [2] (Striatum, 5 mg/kg i.p., 15 min), the “Percent Phospho-Ser137” value is given as 120(8.7) Percent. In addition, in the series with DARPP-32 [2] (setting [12]), the “Percent Phospho-Ser102” value is 108(7.5) Percent. In the series with DARPP-32 [2] (chronic fluoxetine 10 mg/kg 19 days, challenged with saline, versus chronic saline/saline, normalized to total DARPP-32), the “fraction of DARPP-32 phosphorylated at Thr-34, Thr-75, or Ser-137” value is reported as “no differences”. Moreover, in the series with DARPP-32 [2] (striatum, chronic fluoxetine 10 mg/kg 19 days, challenge 10 mg/kg), the “ability of a challenge to increase phosphorylation at Ser-137” value was “abolished”. Moreover, the “effect of fluoxetine alone on DARPP-32 phosphorylation” value in the series on DARPP-32 [3] is on record as “no effect”. Further, in the series on WT and DARPP-32 KO mice [4], the locomotion result is “not significantly affected”. Also, the “effect on immobility in the tail-suspension test” value in the series on WT and DARPP-32 KO mice [5] (DARPP-32 KO mice) is recorded as “strongly attenuated”. Also, the “immobility in the tail-suspension test” value in the series on WT and DARPP-32 KO mice [5] (WT mice, 5 min trial) is “decreased immobility”.

B1: PP2Ca: recombinant his-tagged alpha isoform of protein phosphatase 2C cloned from rat striatum (protein)
chain: MGAFLDKPKMEKHNAQGQGNGLRYGLSSMQGWRVEMEDAHTAVIGLPSGLETWSFFAVYDGHAGSQVAKYCCEHLLDHITNNQDFKGSAGAPSVENVKNGIRTGFLEIDEHMRVMSEKKHGADRSGSTAVGVLISPQHTYFINCGDSRGLLCRNRKVHFFTQDHKPSNPLEKERIQNAGGSVMIQRVNGSLAVSRALGDFDYKCVHGKGPTEQLVSPEPEVHDIERSEEDDQFIILACDGIWDVMGNEELCDFVRSRLEVTDDLEKVCNEVVDTCLYKGSRDNMSVILICFPNAPKVSAEAVKKEAELDKYLENRVEEIIKKQGEGVPDLVHVMRTLASENIPSLPPGGELASKRNVIEAVYNRLNPYKNDDTDSASTDDMW
modifications: left off: small tags and cut ends
notes: recombinant his-tagged alpha isoform of protein phosphatase 2C cloned from rat striatum
On to B1, for which, in the series with phospho-Ser137-DARPP-32 [6], the Michaelis constant (Km) is 13.1 µM, the maximal velocity (Vmax) was 0.39 µmol/mg/min and the kcat is 0.31 s⁻¹. For the same molecule, the “Vmax of pNPP hydrolysis, Mn^2+ compared to Mg^2+ (higher)” value in series [7] (20 mM Mn^2+ versus 20 mM Mg^2+) was “approximately 50 fold”. In series [7] (in the presence of 20 mM Mg^2+), the Vmax stood at 0.20 µmol/mg/min, the kcat amounted to 0.16 s⁻¹ and the Km stood at 3100 µM. In addition, in series [7] (in the presence of 20 mM Mn^2+), the Vmax turned out to be 7.49 µmol/mg/min, the kcat worked out at 5.83 s⁻¹ and the Km was found to be 1530 µM. For the same molecule, the “divalent cation concentration for maximal activity” value with phospho-Ser137-DARPP-32 [8] lay within 4 to 5 mM.

What is called Km is the substrate concentration at which the rate is half of its maximum. By Vmax is commonly meant the top rate of the reaction or transport when substrate is in excess. A word on the kcat: it is the maximal rate divided by the concentration of active sites.
